Consider 2 compounds from PMC9655119, “Sustained Activation of CLR/RAMP Receptors by Gel-Forming Agonists” (International Journal of Molecular Sciences, 2022).

One data set concerns the target T1, human CLR/RAMP2 (Homo sapiens, UniProt O60895+Q16602).
T1 construct: host or cells: CHO-K1 cells (PathHunter β-Arrestin cell line)
The experiment in a line: CLR/RAMP2 receptor-activation assay (PathHunter β-Arrestin). It is filed as cell-based. Here is the method:
(§1) The bioactivity of peptide analogs was studied using CLR/RAMP1, CLR/RAMP2, and CLR/RAMP3 assays by DiscoveRx (Fremont, CA, USA) in cells that stably express human CLR/RAMP1 (1321N1 cells), CLR/RAMP2 (CHO-K1 cells), or CLR/RAMP3 (CHO-K1 cells). The dose-dependent stimulatory effect of agonists was studied in duplicate, at 10 different concentrations. Determination of the half-maximal effective concentration (EC50) was performed using a 10-point dose-response curves. The starting concentration was 1.0 μM, and it was serially diluted 3-fold, in DMSO.
In this assay, the CLR was fused in frame with a small enzyme donor fragment ProLink™ (PK). The receptor was co-expressed with a fusion protein of β-arrestin and an N-terminal deletion mutant of β-galactosidase (i.e., enzyme acceptor). Activation of the CLR/RAMP2 receptor stimulated the binding of β-arrestin to the PK-tagged receptor and led to an increase in enzyme activities which can then be measured with the PathHunter detection reagents. PathHunter cell lines were seeded in a total volume of 20 μL into 384-well microplates and incubated at 37 °C prior to the assay. Intermediate dilution of samples was performed to generate 5X samples in the assay buffer. A 5 μL aliquot of 5X sample was added to cells and incubated at 37 °C for 90 min. Vehicle concentration was 1%.

For a further data set, the target named is T2, human CLR/RAMP1 (Homo sapiens, UniProt O60894+Q16602).
T2 construct: host or cells: 1321N1 cells (cAMP Hunter cell line)
The experiment in a line: CLR/RAMP1 receptor-activation assay (DiscoverX cAMP Hunter, HitHunter cAMP XS+). Type of data set: cell-based. On the procedure: as §1
Cells were seeded in a total volume of 20 μL into 384-well microplates, and the activity was determined using the DiscoverX HitHunter cAMP XS + assay. Before the assay, media was aspirated from cells and replaced with 15 μL 2:1 HBSS/10 mM Hepes: cAMP XS + Ab reagent. Intermediate dilution of samples was performed to generate 4X sample in assay buffer, and 5 μL of the 4X sample was added to cells and incubated at 37°C. Vehicle concentration was 1%.
The chemiluminescent signal was read with a PerkinElmer instrument.

A short description of data set [1]: Passage of peptide molecules through Centricon filters. Type of data set: physicochemical. Here is the method: To evaluate whether gel formation reduces the movement of peptide molecules in solution, we used the Centricon® filters (Millipore) to separate samples and the carriers based on their molecular mass. The sample is monomeric peptide, and the carrier is the self-assembled gel. […] Ten minutes later, the solution was diluted to the 0.1% level, and aliquots of the samples were dispensed into separate Centricon columns (30,000 MW cutoff). The monomeric peptides and gel molecules were separated by centrifugation for 15 min (2000× g). The level of peptide in the elutes was determined by specific EIAs (Phoenix Pharmaceuticals Inc., Burlingame, CA, USA).

Data set [2] is described as follows: Release of Analog C-6 from the gel solution in vivo (single-dose pharmacokinetics). Further details: species or system Sprague–Dawley rats. As to conditions: plasma. Here is the method: Single-dose pharmacokinetics of the Analog C-6 gel solution was investigated in male Sprague–Dawley rats. Rats received a gel solution via the subcutaneous route, and blood samples were collected at pre-dose, 8 h, 1, 2, 4, and 8 days via a catheter that had been cannulated to the jugular vein. Plasma was obtained by centrifugation, and the peptide level in samples was determined by specific ADM EIA (Phoenix Pharmaceuticals Inc.).

The nature of data set [3]: Microrheology viscosity assay (Rheosense viscometer). Type of data set: physicochemical. As to conditions: 5% peptide solution in 5% glucose. Here is the method:
We initially determined the gel-forming capability of peptides qualitatively based on a visual examination of the gel solution using a tube-tapping method. Once we have a rough estimate of the gel-forming capability, we quantitatively determine the viscosity of select peptides using a Rheosense viscometer (Rheosense Inc.; http://www.rheosense.com, accessed on 1 December 2019). In the visual assay, aliquots of peptides were dissolved in an aqueous solution (i.e., de-ionized water, saline, or 5% glucose solution). The peptide that dissolves instantly and stays as a clear solution without obvious macroscopic change in viscosity at 20 min after mixing was considered soluble. If macroscopic particles of peptides remained in the solution for 20 min after mixing, the peptide was considered insoluble. […] In addition, we quantitatively determined the viscosity of Analog C-6 and control peptides using a viscometer. The Rheosense microrheology viscometer uses a “chip” flow channel to quantify the viscosity of a solution as small as 50 μL. After loading the aqueous solution, the sample was injected through the flow channel with multiple pressure sensors, and the rheological properties were determined based on the standard principles of rheometry.

T2 sequence (Q16602 23-461): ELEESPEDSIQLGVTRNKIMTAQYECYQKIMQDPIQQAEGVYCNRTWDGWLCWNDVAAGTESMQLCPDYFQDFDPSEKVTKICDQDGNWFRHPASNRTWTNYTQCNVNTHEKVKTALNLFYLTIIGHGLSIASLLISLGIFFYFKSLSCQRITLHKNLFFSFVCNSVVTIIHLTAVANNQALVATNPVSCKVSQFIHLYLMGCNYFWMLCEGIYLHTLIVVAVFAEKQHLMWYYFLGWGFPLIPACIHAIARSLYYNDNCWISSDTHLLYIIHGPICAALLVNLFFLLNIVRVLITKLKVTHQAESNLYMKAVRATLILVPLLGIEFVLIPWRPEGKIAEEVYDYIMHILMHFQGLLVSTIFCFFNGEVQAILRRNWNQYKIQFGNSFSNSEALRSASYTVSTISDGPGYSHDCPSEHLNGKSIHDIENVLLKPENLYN
T2 sequence (O60894 27-148): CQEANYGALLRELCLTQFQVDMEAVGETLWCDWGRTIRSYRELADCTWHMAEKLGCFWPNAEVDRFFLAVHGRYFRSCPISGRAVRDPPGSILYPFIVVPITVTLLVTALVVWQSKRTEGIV
T1 sequence (Q16602 23-461): as the sequence (Q16602 23-461) above
T1 sequence (O60895 43-175): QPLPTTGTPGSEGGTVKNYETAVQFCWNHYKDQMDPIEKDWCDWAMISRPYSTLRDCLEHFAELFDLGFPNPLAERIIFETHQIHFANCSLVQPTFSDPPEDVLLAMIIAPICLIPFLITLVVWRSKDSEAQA

For the compound `CCCCCCCCCCCCCCCC(=O)NCCCC[C@H](N)C(=O)NCC(=O)N[C@H]1CSSC[C@@H](C(=O)N[C@H](C(=O)N[C@H](C(=O)N[C@@H](CCC(N)=O)C(=O)N[C@@H](CCCCN)C(=O)N[C@@H](CC(C)C)C(=O)N[C@@H](C)C(=O)N[C@@H](Cc2c[nH]cn2)C(=O)N[C@@H](CCC(N)=O)C(=O)N[C@H](C(=O)N[C@@H](Cc2ccc(O)cc2)C(=O)N[C@@H](CCC(N)=O)C(=O)N[C@@H](Cc2ccccc2)C(=O)N[C@H](C(=O)N[C@@H](CC(=O)O)C(=O)N[C@@H](CCCCN)C(=O)N[C@@H](CC(=O)O)C(=O)N[C@@H](CCCCN)C(=O)N[C@@H](CC(=O)O)C(=O)N[C@@H](CC(N)=O)C(=O)N[C@H](C(=O)N[C@@H](C)C(=O)N2CCC[C@H]2C(=O)N[C@@H](CCCNC(=N)N)C(=O)N[C@@H](CO)C(=O)N[C@@H](CCCCN)C(=O)N[C@H](C(=O)N[C@@H](CO)C(=O)N2CCC[C@H]2C(=O)N[C@@H](CCC(N)=O)C(=O)NCC(=O)N[C@@H](Cc2ccc(O)cc2)C(N)=O)[C@@H](C)CC)C(C)C)[C@@H](C)O)[C@@H](C)CC)C(C)C)[C@@H](C)O)NC(=O)[C@H]([C@@H](C)O)NC(=O)CNC(=O)[C@H](Cc2ccccc2)NC(=O)[C@H](CCCNC(=N)N)NC1=O` [Analog C-6], the half-maximal effective concentration (EC50) at human CLR/RAMP2 (CHO-K1 cells stably expressing human CLR/RAMP2, β-arrestin recruitment, 90 min at 37 °C, 10-point dose-response in duplicate, start 1.0 μM, 3-fold dilution in DMSO) is 2.8 nM; at human CLR/RAMP1 (1321N1 cells stably expressing human CLR/RAMP1, cAMP read-out, 10-point dose-response in duplicate, start 1.0 μM, 3-fold serial dilution in DMSO), 24 nM. The Emax at human CLR/RAMP2 ([…], percentage of positive control ADM1-52, read-out: CLR/RAMP2 Max Activity) amounted to 87%; on human CLR/RAMP1 (percentage of positive control β-CGRP, read-out: CLR/RAMP1 Max Activity), 78%. Also, the “solubility in saline solution” value in data set [1] (0.1% peptide in saline) was “low solubility”. The “time during which circulating level was significantly increased” value in data set [2] (male Sprague–Dawley rats, s.c., 32 mg in 16% gel solution, ADM EIA, n = 3) was in the range of 8 to 48 h. Moreover, the Tmax in data set [2] (male, Sprague-Dawley, rat, sc, 32 mg, read-out: time of peak circulating peptide level) is 8 h.

With “adrenomedullin [ADM, reference compound]”, in data set [1] (Centricon 30,000 MW cutoff, 2000× g 15 min, 5% glucose, samples diluted to 0.1% after 10 min, CGRP or ADM EIA, triplicate), the “peptide level in Centricon elute, 5% and 20% solution groups versus 0.1% solution” value is “lower than that of the 0.1% solution group”. Also, in data set [3], the “viscosity compared with water” value was “significantly higher than that of water”.

As usually defined, the EC50 is the concentration needed to bring the measured effect to its halfway point.
